From patent US20080312301A1, “Substituted N-Benzo[D]Isoxazol-3-Yl-Amine Compounds as Inhibitors of Mglur5, Serotonin (5-Ht) and Noradrenaline Receptors, and Uses Thereof” (Gruenenthal GmbH, priority 2005, published 2008)

molecular target: T1, mGluR5 receptor (Sus scrofa, UniProt I3LUI7); assay: Affinity for the mGluR5 receptor: displacement of 3[H]-MPEP binding in pig brain homogenate; details: 10 μM compound, 5 nM 3[H]-MPEP
T1 construct: 450 μg of protein from brain homogenate are incubated with 5 nM^3[H]-MPEP; from tissue; host or cells: pig brain hemispheres without medulla, cerebellum and pons
Procedure: II. Method for Determining the Affinity for the mGluR5 Receptor
In each case 450 μg of protein from brain homogenate are incubated with 5 nM^3[H]-MPEP (Tocris, order No. R1212) (MPEP=2-methyl-6-[…]) and the compounds to be investigated (10 μM in the assay) in buffer (as above) in 250 μl incubation mixtures in 96-well microtiter plates at room temperature for 60 min.
The filter plates were then dried at 55° C. for 60 min.

T1 sequence (I3LUI7 19-1212): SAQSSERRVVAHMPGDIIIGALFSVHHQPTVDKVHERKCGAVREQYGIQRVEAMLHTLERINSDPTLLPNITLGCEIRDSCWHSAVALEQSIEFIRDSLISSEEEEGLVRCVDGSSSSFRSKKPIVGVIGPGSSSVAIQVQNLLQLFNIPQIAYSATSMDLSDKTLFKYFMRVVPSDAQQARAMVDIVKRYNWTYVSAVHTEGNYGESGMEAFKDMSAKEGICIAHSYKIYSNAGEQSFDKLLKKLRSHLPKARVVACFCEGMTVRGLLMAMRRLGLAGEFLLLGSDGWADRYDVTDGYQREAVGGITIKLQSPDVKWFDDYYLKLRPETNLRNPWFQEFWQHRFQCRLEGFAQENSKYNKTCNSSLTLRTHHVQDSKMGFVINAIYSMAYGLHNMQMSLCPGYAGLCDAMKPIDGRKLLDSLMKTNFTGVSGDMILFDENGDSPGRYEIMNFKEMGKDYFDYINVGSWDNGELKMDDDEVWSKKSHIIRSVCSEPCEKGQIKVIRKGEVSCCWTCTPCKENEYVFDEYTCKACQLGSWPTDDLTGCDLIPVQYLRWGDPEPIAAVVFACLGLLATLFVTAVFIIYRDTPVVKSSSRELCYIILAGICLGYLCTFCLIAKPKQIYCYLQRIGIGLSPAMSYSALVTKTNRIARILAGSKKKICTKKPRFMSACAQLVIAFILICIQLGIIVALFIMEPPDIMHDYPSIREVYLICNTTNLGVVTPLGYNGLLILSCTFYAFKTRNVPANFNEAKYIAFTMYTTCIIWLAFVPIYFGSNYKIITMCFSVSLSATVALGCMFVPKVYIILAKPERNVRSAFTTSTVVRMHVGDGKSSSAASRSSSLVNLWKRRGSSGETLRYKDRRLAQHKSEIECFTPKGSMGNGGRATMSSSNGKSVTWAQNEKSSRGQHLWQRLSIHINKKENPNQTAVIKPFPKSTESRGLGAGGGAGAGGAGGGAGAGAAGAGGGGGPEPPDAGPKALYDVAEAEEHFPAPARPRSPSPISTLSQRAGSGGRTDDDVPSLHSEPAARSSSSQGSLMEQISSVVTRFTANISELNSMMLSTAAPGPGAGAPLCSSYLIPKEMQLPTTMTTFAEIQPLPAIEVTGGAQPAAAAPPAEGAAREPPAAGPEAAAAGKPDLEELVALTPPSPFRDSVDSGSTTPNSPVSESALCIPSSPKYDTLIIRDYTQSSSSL

Compound | inhibition at 10 µM [%] | mGluR5 receptor inhibition of the 3[H]-MPEP binding in % (10 μM) [%]
Cc1ccc2onc(NC(=O)c3ccccc3C)c2c1 [Example 125, 2-methyl-N-(5-methylbenzo[d]isoxazol-3-yl)benzamide] | 40.6 | –
Cc1ccc2onc(NC(=O)c3cccc(F)c3F)c2c1 [Example 126, 2,3-difluoro-N-(5-methylbenzo[d]isoxazol-3-yl)benzamide] | 39.5 | –
Cc1ccc2onc(NC(=O)c3ccc(F)cc3F)c2c1 [Example 127, 2,4-difluoro-N-(5-methylbenzo[d]isoxazol-3-yl)benzamide] | 43.2 | –
Cc1ccc2onc(NC(=O)c3cccnc3Cl)c2c1 [Example 128, 2-chloro-N-(5-methylbenzo[d]isoxazol-3-yl)nicotinamide] | 33.1 | –
CC(C)(C)CC(=O)Nc1noc2ccc(F)cc12 [Example 130, N-(5-fluorobenzo[d]isoxazol-3-yl)-3,3-dimethyl butyramide] | – | 31.64
O=C(Nc1noc2ccc(F)cc12)c1ccc(F)cc1F [Example 131, 2,4-difluoro-N-(5-fluorobenzo[d]isoxazol-3-yl)benzamide] | – | 42.52
Cc1cc(C(=O)Nc2noc3ccc(F)cc23)c(C)o1 [Example 132, 2,5-dimethylfuran-3-(5-fluorobenzo[d]isoxazol-3-yl)carboxamide] | – | 36.88
O=C(Nc1noc2ccc(Br)cc12)c1cccc(F)c1F [Example 133, N-(5-bromobenzo[d]isoxazol-3-yl)-2,3-difluorobenzamide] | 34.6 | –
Cc1cc(C(=O)Nc2noc3ccc(Br)cc23)c(C)o1 [Example 134, 2,5-dimethylfuran-3-(5-bromobenzo[d]isoxazol-3-yl)carboxamide] | – | 43.11
CCC(C)C(=O)Nc1noc2ccc(Br)cc12 (stereo not drawn) [Example 135, N-(5-bromobenzo[d]isoxazol-3-yl)-2-methyl butyramide] | – | 40.00
O=C(Nc1noc2ccc(Br)cc12)c1c(F)cccc1F [Example 136, N-(5-bromobenzo[d]isoxazol-3-yl)-2,6-difluorobenzamide] | 40.8 | –
COc1ccc(C(=O)Nc2noc3ccc(Br)cc23)cc1OC [Example 137, N-(5-bromobenzo[d]isoxazol-3-yl)-3,4-dimethoxybenzamide] | 31.2 | –
Cc1ccc(C(=O)Nc2noc3ccc(Br)cc23)cc1 [Example 138, N-(5-bromobenzo[d]isoxazol-3-yl)-4-methylbenzamide] | 32 | –
COc1cccc(OC)c1C(=O)Nc1noc2ccc(Br)cc12 [Example 139, N-(5-bromobenzo[d]isoxazol-3-yl)-2,6-dimethoxybenzamide] | 41.5 | –
O=C(Nc1noc2ccc(Br)cc12)c1ccccc1Br [Example 140, 2-bromo-N-(5-bromobenzo[d]isoxazol-3-yl)benzamide] | 38.4 | –
O=C(Nc1noc2ccc(Br)cc12)c1cc(F)ccc1C(F)(F)F [Example 141, N-(5-bromobenzo[d]isoxazol-3-yl)-5-fluoro-2-trifluoromethylbenzamide] | 33.1 | –
COc1cccc(C(=O)Nc2noc3ccc(Br)cc23)c1 [Example 142, N-(5-bromobenzo[d]isoxazol-3-yl)-3-methoxybenzamide] | 37.8 | –
Cc1cccc(C(=O)Nc2noc3ccc(C)cc23)c1 [Example 143, 3-methyl-N-(5-methylbenzo[d]isoxazol-3-yl)benzamide] | – | 44.66
Cc1ccc2onc(NC(=O)c3ccc(C#N)cc3)c2c1 [Example 144, 4-cyano-N-(5-methylbenzo[d]isoxazol-3-yl)benzamide] | 48.8 | –
CCC(C(=O)Nc1noc2ccc(C)cc12)c1ccccc1 (stereo not drawn) [Example 145, N-(5-methylbenzo[d]isoxazol-3-yl)-2-phenylbutyramide] | 43.5 | –
CCCC(C)C(=O)Nc1noc2ccc(C)cc12 (stereo not drawn) [Example 146, N-(5-methylbenzo[d]isoxazol-3-yl)-2-methylpentanamide] | 34 | –
O=C(Nc1noc2cccc(F)c12)c1ccccc1 [Example 147, N-(4-fluorobenzo[d]isoxazol-3-yl)benzamide] | 31.4 | –
O=C(Nc1noc2cccc(F)c12)c1ccc(Cl)cc1 [Example 148, 4-chloro-N-(4-fluorobenzo[d]isoxazol-3-yl)benzamide] | 79.5 | –
O=C(Nc1noc2cccc(F)c12)c1ccccc1F [Example 149, 2-fluoro-N-(4-fluorobenzo[d]isoxazol-3-yl)benzamide] | 32.5 | –

Compound | inhibition at 10 µM [%] | mGluR5 receptor inhibition of the 3[H]-MPEP binding in % (10 μM) [%]
O=C(Nc1noc2cccc(F)c12)C12CC3CC(CC(C3)C1)C2 [Example 150, adamantane-1-(4-fluorobenzo[d]isoxazol-3-yl)carboxamide] | – | 53.18
O=C(Nc1noc2cccc(Cl)c12)C12CC3CC(CC(C3)C1)C2 [Example 151, adamantane-1-(4-chlorobenzo[d]isoxazol-3-yl)carboxamide] | – | 74.05
O=C(Nc1noc2cccc(Cl)c12)c1ccccc1 [Example 152, N-(4-chlorobenzo[d]isoxazol-3-yl)benzamide] | 31.6 | –
Cc1cccc(C(=O)Nc2noc3cccc(Cl)c23)c1 [Example 153, N-(4-chlorobenzo[d]isoxazol-3-yl)-3-methylbenzamide] | 63.8 | –
CCC(C)C(=O)Nc1noc2cccc(Cl)c12 (stereo not drawn) [Example 154, N-(4-chlorobenzo[d]isoxazol-3-yl)-2-methylbutyramide] | 30 | –
CC(C)(C)CC(=O)Nc1noc2cccc(Cl)c12 [Example 155, N-(4-chlorobenzo[d]isoxazol-3-yl)-3,3-dimethylbutyramide] | 52.4 | –
COc1cccc2onc(NC(=O)c3ccccc3C)c12 [Example 156, N-(4-methoxybenzo[d]isoxazol-3-yl)-2-methylbenzamide] | 33.8 | –
COc1cccc2onc(NC(=O)c3ccccc3Cl)c12 [Example 157, 2-chloro-N-(4-methoxybenzo[d]isoxazol-3-yl)benzamide] | 32.4 | –
COc1cccc2onc(NC(=O)c3ccccc3C(F)(F)F)c12 [Example 158, N-(4-methoxybenzo[d]isoxazol-3-yl)-2-trifluoromethylbenzamide] | 36.1 | –
CCCCC(CC)C(=O)Nc1noc2cccc(OC)c12 (stereo not drawn) [Example 159, N-(4-methoxybenzo[d]isoxazol-3-yl)-2-ethylhexanamide] | 43.2 | –
CCC(C)C(=O)Nc1noc2cccc(OC)c12 (stereo not drawn) [Example 160, N-(4-methoxybenzo[d]isoxazol-3-yl)-2-methylbutyramide] | 54 | –
CCCC(C)C(=O)Nc1noc2cccc(OC)c12 (stereo not drawn) [Example 161, N-(4-methoxybenzo[d]isoxazol-3-yl)-2-methylpentanamide] | 38.5 | –
CCC(C)C(=O)Nc1noc2cccc(OCC(F)(F)F)c12 (stereo not drawn) [Example 163, 2-methyl-N-[4-(2,2,2-trifluoroethoxy)benzo[d]isoxazol-3-yl]butyramide] | 36 | –
CC(C)(C)CC(=O)Nc1noc2cccc(OCC(F)(F)F)c12 [Example 164, 3,3-dimethyl-N-[4-(2,2,2-trifluoroethoxy)benzo[d]isoxazol-3-yl]butyramide] | 33.4 | –
Cc1cc(C(=O)Nc2noc3cccc(OCC(F)(F)F)c23)c(C)o1 [Example 166, 2,5-dimethylfuran-3-[4-(2,2,2-trifluoroethoxy)benzo[d]isoxazol-3-yl]carboxamide] | – | 32.39
Cc1ccc(COc2cccc3onc(NC(=O)c4cccc([N+](=O)[O-])c4)c23)cc1 [Example 167, N-[4-(4-methylbenzyloxy)benzo[d]isoxazol-3-yl]-3-nitrobenzamide] | 39.7 | –
CCCc1ccc(C(=O)Nc2noc3cccc(OCc4ccc(C)cc4)c23)cc1 [Example 168, N-[4-(4-methylbenzyloxy)benzo[d]isoxazol-3-yl]-4-propylbenzamide] | 32.2 | –
CN(C)c1cccc2onc(NC(=O)c3cc(F)cc(C(F)(F)F)c3)c12 [Example 169, N-(4-dimethylaminobenzo[d]isoxazol-3-yl)-3-fluoro-5-trifluoromethylbenzamide] | 36.8 | –
CN(C)c1cccc2onc(NC(=O)c3ccc(Cl)c(Cl)c3)c12 [Example 170, 3,4-dichloro-N-(4-dimethylaminobenzo[d]isoxazol-3-yl)benzamide] | 38 | –
CN(C)c1cccc2onc(NC(=O)c3cccc([N+](=O)[O-])c3)c12 [Example 171, N-(4-dimethylaminobenzo[d]isoxazol-3-yl)-3-nitrobenzamide] | 42.3 | –
CN(C)c1cccc2onc(NC(=O)C34CC5CC(CC(C5)C3)C4)c12 [Example 172, adamantane-1-(4-dimethylaminobenzo[d]isoxazol-3-yl)carboxamide] | – | 51.40
CN(C)c1cccc2onc(NC(=O)c3cc4ccccc4s3)c12 [Example 173, benzo[b]thiophene-2-(4-dimethylaminobenzo[d]isoxazol-3-yl)carboxamide] | – | 43.55
Nc1c(F)c(F)c2c(NC(=O)c3c(F)cccc3F)noc2c1F [Example 176, N-(6-amino-4,5,7-trifluorobenzo[d]isoxazol-3-yl)-2,6-difluorobenzamide] | 36.1 | –
Nc1c(F)c(F)c2c(NC(=O)c3ccc(F)cc3F)noc2c1F [Example 177, N-(6-amino-4,5,7-trifluorobenzo[d]isoxazol-3-yl)-2,4-difluorobenzamide] | 30.8 | –
